Like-named read-outs stand apart in the source and are kept apart here.
Experiments:
[1] = target: T1, I172A mutant TbbTIM (Trypanosoma brucei brucei, UniProt P04789, I172A); assay: Reaction of [1-13C]-GA in D2O with and without phosphite dianion, 1H NMR; type: biochemical; conditions: for Average product yield (mole fraction), phosphite dianion-activated reaction: 20 mM [1-13C]-GA, D2O, pD 7.0, I = 0.1, 25 °C, average over [HPO3^2-]
[2] = target: T2, I172V mutant TbbTIM (Trypanosoma brucei brucei, UniProt P04789, I172V); assay: as above; type: biochemical; conditions: for Average product yield (mole fraction), phosphite dianion-activated reaction / Fractional yield from reaction at the enzyme active site: 20 mM [1-13C]-GA, D2O; for Average product yield (mole fraction), phosphite dianion-activated reaction: pD 7.0, I = 0.1, 25 °C, average over [HPO3^2-]; for Fractional yield from reaction at the enzyme active site: value in parenthesis, [HPO3^2-] 0 mM, pD 7.0, 25 °C
[3] = target: T3, L232A mutant TbbTIM (Trypanosoma brucei brucei, UniProt P04789, L232A); assay: as above; type: biochemical; conditions: for Average product yield (mole fraction), phosphite dianion-activated reaction: 20 mM [1-13C]-GA, D2O, pD 7.0, I = 0.1, 25 °C, average over [HPO3^2-]
[4] = target: T3, L232A mutant TbbTIM; conditions: 30 mM TEA, pH 7.5, 25 °C, I = 0.1 (NaCl), cited from earlier work
[5] = target: T1, I172A mutant TbbTIM; assay: TIM-catalyzed isomerization of DHAP and arsenate inhibition; type: biochemical; conditions: 30 mM TEA, pH 7.5, 25 °C, I = 0.1 (NaCl)
[6] = tested on: wildtype TbbTIM; conditions: cited from earlier work
[7] = tested on: E165D chicken TIM; conditions: cited from earlier work
[8] = tested on: E165D/S96P chicken TIM; conditions: cited from earlier work
[9] = target: T2, I172V mutant TbbTIM; assay: TIM-catalyzed isomerization of DHAP and arsenate inhibition; type: biochemical; conditions: 30 mM TEA, pH 7.5, 25 °C, I = 0.1 (NaCl)
[10] = target: T3, L232A mutant TbbTIM; type: biochemical; conditions: for Fractional Product Yield fE: fraction of the three TIM-catalyzed products, 5 mM GAP, 3.4 nM L232A, D2O
[11] = tested on: WT chicken TIM; conditions: cited from earlier work
[12] = target: T1, I172A mutant TbbTIM; type: biochemical; conditions: for Fractional Product Yield fE: fraction of the three TIM-catalyzed products, 5 mM GAP, 65 nM I172A, D2O
[13] = tested on: WT chicken TIM; conditions: cited from earlier work; remark: listed apart in the source
[14] = tested on: E165D chicken TIM; conditions: cited from earlier work; remark: listed apart in the source
[15] = tested on: wildtype TbbTIM; conditions: 30 mM TEA, pH 7.5, 25 °C, I = 0.1 (NaCl), cited from earlier work
[16] = target: T3, L232A mutant TbbTIM; conditions: 30 mM TEA, pH 7.5, 25 °C, I = 0.1 (NaCl), cited from earlier work; remark: listed apart in the source
[17] = tested on: E165D/S96P chicken TIM; conditions: cited from earlier work; remark: listed apart in the source
[18] = target: T1, I172A mutant TbbTIM; assay: TIM-catalyzed isomerization of GAP; type: biochemical; conditions: 30 mM TEA, pH 7.5, 25 °C, I = 0.1 (NaCl)
[19] = tested on: wildtype TbbTIM; type: biochemical, Trypanosoma brucei brucei; conditions: reaction of GAP in D2O, pD 7.9, 25 °C; from product yields
[20] = target: T2, I172V mutant TbbTIM; assay: TIM-catalyzed isomerization of GAP; type: biochemical; conditions: 30 mM TEA, pH 7.5, 25 °C, I = 0.1 (NaCl)
[21] = unactivated reaction of [1-13C]-GA in D2O (no HPO3^2-)
[22] = isomerization of [1-13C]-GA in D2O
[23] = isomerization of GAP in D2O with intramolecular transfer of hydrogen
[24] = reaction of GAP in D2O, pD 7.9, 25 °C, from product yields
[25] = read-out: Ki (arsenate), inhibition of DHAP isomerization

[2H]C(O)[13CH]=O (stereo not drawn) [[1-^13C, 2-^2H]-GA]
Average product yield (mole fraction), phosphite dianion-activated reaction [1]: 0.30 ± 0.02
yield of product [1, 21]: 15%
Average product yield (mole fraction), phosphite dianion-activated reaction [2]: 0.24 ± 0.02
Fractional yield from reaction at the enzyme active site [2]: 0.55
Average product yield (mole fraction), phosphite dianion-activated reaction [3]: 0.51 ± 0.02

O=C[13CH2]O [[2-^13C]-GA]
Average product yield (mole fraction), phosphite dianion-activated reaction [1]: 0.02 ± 0.001
yield of product [1, 22]: 2%
Average product yield (mole fraction), phosphite dianion-activated reaction [2]: 0.13 ± 0.01
Fractional yield from reaction at the enzyme active site [2]: 0.04
Average product yield (mole fraction), phosphite dianion-activated reaction [3]: 0.01 ± 0.001
yield of product [3, 22]: 1%

[2H][13CH](O)C=O (stereo not drawn) [[2-^13C, 2-^2H]-GA]
Average product yield (mole fraction), phosphite dianion-activated reaction [1]: 0.25 ± 0.02
Average product yield (mole fraction), phosphite dianion-activated reaction [2]: 0.63 ± 0.01
Fractional yield from reaction at the enzyme active site [2]: 0.40
Average product yield (mole fraction), phosphite dianion-activated reaction [3]: 0.48 ± 0.02

[2H]C([2H])(O)[13CH]=O [[1-^13C, 2,2-di-^2H]-GA]
yield of product [1, 21]: 38%
yield of product ([2]; reaction of [1-13C]-GA in D2O in the absence of HPO3^2-): 25%

O=C(CO)COP(=O)(O)O [DHAP, dihydroxyacetone phosphate]
kcat (DHAP) [4]: 4.7 s⁻¹
Km ([4]; read-out: Km (DHAP)): 77 µM
kcat (DHAP) [5]: 17 s⁻¹
Km ([5]; read-out: Km (DHAP)): 3700 µM
kcat (DHAP) ([6]; 30 mM TEA, pH 7.5, 25 °C, I = 0.1 (NaCl)): 300 s⁻¹
Km ([6]; read-out: Km (DHAP), 30 mM TEA, pH 7.5, 25 °C, I = 0.1 (NaCl)): 700 µM
kcat (DHAP) [7]: 4.1 s⁻¹
Km ([7]; read-out: Km (DHAP)): 1200 µM
kcat (DHAP) [8]: 3.4 s⁻¹
Km ([8]; read-out: Km (DHAP)): 53 µM
kcat (DHAP) [9]: 65 s⁻¹
Km ([9]; read-out: Km (DHAP)): 200 µM
Fractional Product Yield fE ([10]; pD 7.9, 25 °C): 0.041
yield of product [10, 23]: 4%
kcat (DHAP) [11]: 600 s⁻¹
Km ([11]; read-out: Km (DHAP)): 650 µM
Fractional Product Yield fE ([12]; pD 7.9, 25 °C): 0.13
yield of product [12, 23]: 13%

O=C[C@H](O)COP(=O)(O)O [d-GAP]
Fractional Product Yield fE ([10]; pD 7.9, 25 °C): 0.098
Fractional Product Yield fE ([12]; pD 7.9, 25 °C): 0.50

O=C[C@H](O)COP(=O)(O)O [GAP, R-glyceraldehyde 3-phosphate]
kcat (GAP) [13]: 8300 s⁻¹
Km ([13]; read-out: Km (GAP)): 420 µM
kcat (GAP) [14]: 4.2 s⁻¹
Km ([14]; read-out: Km (GAP)): 78 µM
Rate Constant Ratio (kC1)D/(kC2)D [10, 24]: 8.8
Rate Constant Ratio kex/(kC1)H [10, 24]: 23
kcat (GAP) [15]: 2100 s⁻¹
Km ([15]; read-out: Km (GAP)): 250 µM
kcat (GAP) [16]: 220 s⁻¹
Km ([16]; read-out: Km (GAP)): 140 µM
kcat (GAP) [17]: 68 s⁻¹
Km ([17]; read-out: Km (GAP)): 66 µM
kcat (GAP) [18]: 12 s⁻¹
Km ([18]; read-out: Km (GAP)): 150 µM
Rate Constant Ratio (kC1)D/(kC2)D [19]: 1.7
Rate Constant Ratio kex/(kC1)H [19]: 1.5
kcat (GAP) [20]: 225 s⁻¹
Km ([20]; read-out: Km (GAP)): 58 µM
Rate Constant Ratio (kC1)D/(kC2)D [12, 24]: 0.74
Rate Constant Ratio kex/(kC1)H [12, 24]: 6.7

O=[As](O)(O)O [arsenate, arsenate dianion, reference compound]
Ki ([6]; read-out: Ki (competitive inhibitor), arsenate dianion, competitive): 4.6 mM
Ki [7, 25]: 12 mM
Ki [8, 25]: 2.1 mM
Ki [11, 25]: 11 mM

[2H]C(O)C(=O)COP(=O)(O)O (stereo not drawn) [d-DHAP]
Fractional Product Yield fE ([10]; pD 7.9, 25 °C): 0.86
Fractional Product Yield fE ([12]; pD 7.9, 25 °C): 0.37
